Structures are written as SMILES.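 Cells were grown in 96-well plates and exposed to each compound for 48 hours at five concentrations; endpoints were interpolated linearly between bracketing concentrations, or set to the highest concentration if not reached. GI50: concentration for 50% inhibition of growth.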 The source made the active and inactive calls. Cut-off read from the data, not from the text of the source: active = GI50 up to about 1.1 µM and inactive = higher.

Common to all, as to assay: DTP human tumour cell line panel, 48 h
The test system of test [1] is 786-0.
Test [2] concerns A498.
Test [3] has as its system A549.
The test system of test [4] is COLO 205.
The subject of test [5] is DU-145.
For test [6], the system named is HOP-92.
Test [7] has as its system HT-29.
Test [8] deals with Hs-578T.
For test [9], the system named is MDA-MB-435.
The test system of test [10] is MDA-N.
The test system of test [11] is Malme-3M.
Test [12] deals with NCI-H522.
Test [13] deals with NCI/ADR-RES.
Test [14] concerns SF-539.
Test [15] concerns SK-MEL-28.
Test [16] concerns SK-MEL-5.
Test [17] concerns SW-620.
The subject of test [18] is TK-10.
Test [19] deals with UO-31.
In test [20] the test system is SK-OV-3.

Regarding `O=C1C2=Cc3ccccc3CCN2c2ccccc21`, the GI50 is 19.6 µM (inactive) in test [1]; 16.3 µM (inactive) in test [2]; 49.2 µM (inactive) in [3]; > 41.7 µM (inactive) in test [4]; > 75.3 µM (inactive) in test [5]; 28.8 µM (inactive) in test [6]. Also, the GI50 was 14.9 µM (inactive) in test [7]; 41 µM (inactive) in [8]; 28.7 µM (inactive) in test [9]; > 10 µM (inactive) in [10]; 26.3 µM (inactive) in [11]; 40.2 µM (inactive) in test [12]. The GI50 is 30.1 µM (inactive) in test [13]; 16.4 µM (inactive) in [14]; > 49.9 µM (inactive) in test [15]; 17.3 µM (inactive) in test [16]; 20.4 µM (inactive) in [17]; > 100 µM (inactive) in test [18]. Moreover, in test [19], the GI50 is 42.8 µM (inactive).

On to `CC1(C)C(c2ccccc2)=[N+]([O-])C(C)(C)N1O`, for which the GI50 in test [1], in test [2], in test [3], in test [4], in test [5] and in test [6] was > 10 µM (inactive) throughout. Besides, the GI50 in test [7], in test [8], in test [9], in [10], in test [11] and in test [12] was > 10 µM (inactive) in each case. Further, the GI50 in test [13], in [14], in [15], in test [16], in [20] and in [17] was > 10 µM (inactive) throughout. Besides, the GI50 in test [18] is > 10 µM (inactive).

As for `CC(=O)C1=C(c2ccccc2)N(C2OC(CO)C(O)C(O)C2O)C(S)=C(C#N)C1c1ccc(Cl)cc1` (stereo not drawn), the GI50 is 27 µM (inactive) in test [1]; 38.6 µM (inactive) in [2]; 39.4 µM (inactive) in test [3]; 24.7 µM (inactive) in test [4]; 44.8 µM (inactive) in [5]; 19.7 µM (inactive) in test [6]. Besides, the GI50 in test [7] was 31 µM (inactive); in test [8], 25.8 µM (inactive); in test [9] it was 23.6 µM (inactive); in [10] it was 25.8 µM (inactive); in test [11] it was 24.8 µM (inactive); in test [12], 23.7 µM (inactive). For the same compound, the GI50 is 31.4 µM (inactive) in test [13]; 18.2 µM (inactive) in test [14]; 20.7 µM (inactive) in [15]; 19.6 µM (inactive) in [16]; 8.53 µM (inactive) in [17]; 52.7 µM (inactive) in test [18]. Further, the GI50 in test [19] was 28.8 µM (inactive).

In the case of `COC(=O)[C@H]1C=C[C@H](OC2OC(COC(C)=O)C(OC(C)=O)C(OC(C)=O)C2OC(C)=O)n2c(=O)n(-c3ccccc3)c(=O)n21` (stereo partly drawn), the GI50 is 2.45 µM (inactive) in test [1]; 4.97 µM (inactive) in test [2]; 17.4 µM (inactive) in test [3]; 1.7 µM (inactive) in test [4]; 6.08 µM (inactive) in [5]; 1.78 µM (inactive) in [6]. Moreover, the GI50 in test [7] was 2.61 µM (inactive); in test [8], 2.38 µM (inactive); in test [9], 4.38 µM (inactive); in test [10], 4.68 µM (inactive); in test [12], 0.222 µM (active); in [13], 6.07 µM (inactive). The GI50 in [14] is 2.09 µM (inactive); in test [15] it was 2.49 µM (inactive); in [16], 2.12 µM (inactive); in test [20] it was 18.4 µM (inactive); in test [17], 2.18 µM (inactive); in [18], 4.8 µM (inactive). Further, the GI50 in test [19] is 2.04 µM (inactive).

Consider `FC(F)(F)c1cccnc1Sc1nc2ccccc2s1`, for which the GI50 was > 100 µM (inactive) in test [1]; > 100 µM (inactive) in test [2]; > 100 µM (inactive) in test [3]; > 100 µM (inactive) in test [4]; > 100 µM (inactive) in [5]; 16.3 µM (inactive) in test [6]. The GI50 is > 100 µM (inactive) in [7]; 45.7 µM (inactive) in test [8]; > 100 µM (inactive) in [9]; > 100 µM (inactive) in test [10]; > 100 µM (inactive) in test [11]; 80 µM (inactive) in test [12]. Besides, the GI50 in [13], in [14], in test [15], in [16], in test [17] and in test [18] was > 100 µM (inactive) in each case. Also, the GI50 in test [19] is 32.1 µM (inactive).

For the compound `CN(CCCNC(=O)c1nn(-c2ccc(Cl)cc2Cl)c2c1ccc1ccccc12)CCCNC(=O)c1nn(-c2ccc(Cl)cc2Cl)c2c1ccc1ccccc12`, the GI50 is 1.54 µM (inactive) in [1]; 1.43 µM (inactive) in test [2]; 1.63 µM (inactive) in [3]; 1.91 µM (inactive) in [4]; 1.77 µM (inactive) in test [5]; 1.84 µM (inactive) in [6]. The GI50 in [7] is 1.57 µM (inactive); in test [8], 1.44 µM (inactive); in test [9], 1.71 µM (inactive); in test [10] it was 1.73 µM (inactive); in test [11] it was 1.95 µM (inactive); in test [12], 1.46 µM (inactive). Besides, the GI50 in test [13] is 1.59 µM (inactive); in test [14] it was 1.76 µM (inactive); in test [15] it was 1.66 µM (inactive); in test [16], 1.88 µM (inactive); in test [20], 2 µM (inactive); in [17], 2.26 µM (inactive). Further, the GI50 in test [18] is 1.89 µM (inactive).

`Nc1ccc(-c2nc3ccccc3s2)cc1C#Cc1ccccc1`: the GI50 is 17.7 µM (inactive) in test [1]; 21 µM (inactive) in test [2]; 22.6 µM (inactive) in [3]; 16.3 µM (inactive) in test [4]; 23.8 µM (inactive) in test [5]; 18.8 µM (inactive) in [6]. Besides, the GI50 is 19.6 µM (inactive) in test [7]; 21.5 µM (inactive) in [8]; 19.1 µM (inactive) in test [9]; 17.9 µM (inactive) in test [10]; 12.2 µM (inactive) in test [11]; 18.9 µM (inactive) in test [12]. The GI50 in [13] was 21.4 µM (inactive); in [14], 18.2 µM (inactive); in [16], 17 µM (inactive); in test [20] it was 24.3 µM (inactive); in test [17] it was 17.8 µM (inactive); in [18], 13.9 µM (inactive). Also, the GI50 in [19] is 18.3 µM (inactive).

With `O=C1/C(=C/c2ccccc2O)N=C(c2ccccc2)N1C1Nc2cc3c(cc2S1)NC(N1C(=O)/C(=C/c2ccccc2O)N=C1c1ccccc1)S3` (stereo not drawn), the GI50 in test [1] was 25.4 µM (inactive); in [2], 20 µM (inactive); in [5], 42.8 µM (inactive); in test [6], 0.489 µM (active); in test [7], 42.3 µM (inactive); in test [8] it was 30.5 µM (inactive). Moreover, the GI50 in test [9] was 14.8 µM (inactive); in test [10], 14 µM (inactive); in [12], 35.2 µM (inactive); in test [13] it was 10.5 µM (inactive); in [14], 36.1 µM (inactive); in test [15], 65.3 µM (inactive). For the same compound, the GI50 in test [16] was 29.7 µM (inactive); in test [20], 35.8 µM (inactive); in test [17], 36.3 µM (inactive); in test [18], 25.4 µM (inactive); in test [19], 23 µM (inactive).

`COc1c(C)c(OCC=C(C)C)cc(CO)c1CO`: the GI50 in [1] is 7.23 µM (inactive); in test [2], 44.1 µM (inactive); in test [3], 47.5 µM (inactive); in test [4], 58.6 µM (inactive); in test [5], 92 µM (inactive); in [6] it was > 100 µM (inactive). In addition, the GI50 is 54.5 µM (inactive) in [7]; 44.1 µM (inactive) in test [8]; 55.3 µM (inactive) in [9]; 71.3 µM (inactive) in test [10]; 7.46 µM (inactive) in [12]; 26.3 µM (inactive) in test [13]. In addition, the GI50 is 53.7 µM (inactive) in test [14]; 22.6 µM (inactive) in test [16]; 97.3 µM (inactive) in [20]; 74.5 µM (inactive) in [17]; 89.5 µM (inactive) in [18].

With `CC(=O)OCC1OC(n2c(C)cc(C)c(C#N)c2=S)C(OC(C)=O)C(OC(C)=O)C1OC(C)=O` (stereo not drawn), the GI50 in test [1], in test [2], in [3], in test [4], in [5] and in test [6] was > 100 µM (inactive) throughout. The GI50 in [7], in test [8], in [9], in test [10], in [11] and in test [12] was > 100 µM (inactive) in each case. The GI50 in [13], in [14], in [15], in test [16], in test [18] and in test [19] was > 100 µM (inactive) each time.

For `O=C(CC1(O)CCCCC1)OC1CCCC1`, the GI50 in test [1], in test [2], in test [3], in test [4], in test [5] and in [6] was > 100 µM (inactive) each time. For the same compound, the GI50 in test [7], in test [8], in [9], in [10], in test [11] and in test [12] was > 100 µM (inactive) in each case. Besides, the GI50 in [13], in [14], in test [16], in [20], in test [18] and in [19] was > 100 µM (inactive) each time.

A word on the GI50: it is the concentration that inhibits growth by half.
